Data: patent publication US20060251705A1 (Wyeth, priority 2005, published 2006)

Experiments:
Type in all cases: physicochemical
[1] = Simulated Y-site compatibility: subvisible particulates by light obscuration (HIAC, USP 788); settings: for Subvisible Particulates (HIAC) ≧10 μm / Subvisible Particulates (HIAC) ≧25 μm: each before mixing, 0 hours; for HIAC ≧10 μm / HIAC ≧25 μm: each solution before mixing, 0 Hours
Source text: Sub-visible particulate formation may be measured by light obscuration (HIAC) as per United States Pharmacopeia USP Chapter 788 Particulate Matter in Injections.
This time period has become standard when performing these “simulated Y-site” studies, although the actual residence time for the two solutions in the administration set may not exceed eight minutes prior to entering the venous system.
The acceptance criteria of “no incompatibility indicating change” over the four hour evaluation period is being applied to the Appearance and Description assay as well as the HIAC subvisible particulate assay. Thus, for instance, formation of visible particulates or increase of subvisible particulates would indicate an incompatibility and would result in a “Y-site incompatible” classification for that diluent or drug. In addition to the Appearance and Description and HIAC testing, the pH of the solutions are monitored “for information only.” Before mixing of the two test solutions together; Appearance and Description, HIAC subvisible particulate testing, and pH are determined on each as controls.
(§1) Testing of Controls • 1. […] The remaining volumes of the two test articles are used immediately.
(§2) Preparation and Testing of Combined Solutions • 1. […] Approximately 30 ml of the combined solution is immediately removed for 0 hour Appearance and Description, subvisible particulates by HIAC and pH testing. The beaker with the remaining solution is then recovered with Parafilm and the headspace flushed with nitrogen. • 2. The sampling and testing of 30 ml aliquots is repeated after one and four hours.
The following tests are performed immediately after sampling: • 1. Appearance and Description for color, visible particulates, and turbidity measured using a Black and White background light box with a fluorescent lamp capable of producing intensity of illumination between 2000 and 3750 lux. • 2. Sub visible particulates are measured by light obscuration (HIAC) as per United States Pharmacopeia USP Chapter 788 Particulate Matter in Injections.
(§3) All drug products are prepared per package insert directions; some drugs having wide therapeutic ranges are tested at multiple concentrations, and some drugs with different formulations are tested. A simulation of the mixing which would occur at an intravenous administration set Y-site is used, and the period for evaluation of compatibility exaggerated the generally short time that the two agents would be together prior to venous circulation. Test solutions before and after mixing are measured by visual observation, by light obscuration for subvisible particulates (HIAC), and by potentiometry over a four hour period.

[2] = Simulated Y-site compatibility: pH by potentiometric meter
Description: (§4) The acceptance criteria of “no incompatibility indicating change” over the four hour evaluation period is being applied to the Appearance and Description assay as well as the HIAC subvisible particulate assay. […] In addition to the Appearance and Description and HIAC testing, the pH of the solutions are monitored “for information only.” Before mixing of the two test solutions together; Appearance and Description, HIAC subvisible particulate testing, and pH are determined on each as controls.
as §1, §2
pH is measured using a potentiometric meter capable of measuring pH values reproducibly within 0.02 pH units and having electrodes suitable for pH meter use.
as §3

[3] = Compatibility of tigecycline with heparin (simulated Y-site study, overall finding); settings: common point of administration, e.g. Y-site, without saline flush
Description: A study is performed to determine the compatibility of tigecycline solutions with heparin. Heparin is prepared for this study as per the directions given in the package insert. The compatibility testing is performed using a “simulated Y-site” technique developed and published by Trissel et. al. “Compatibility of Fenoldopam Mesylate with other Drugs during Simulated Y-site Administration, Am. J. Health-System Pharmacy, Vol. 60, 80-85, 2003; Trissel, et. al. “Physical Compatibility of Antithymocyte Globulin (Rabbit) with Heparin Sodium and Hydrocortisone Sodium, Vol. 60, 1650-1652, 2003; Trissel et. al. “Compatibility Screening of Bivalirudin during Simulated Y-site Administration with Other Drugs, and Trissel et. al. “Compatibility of piperacillin sodium plus tazobactum with selected drugs during simulated Y-site injection, Am. J. Hosp. Pharm., Vol. 51, 672-678, 1994. […]
as §4

[4] = Compatibility classification of intravenous diluents and drugs under simulated Y-site conditions with Tigecycline for Injection; settings: Dobutamine final concentration 1.0 mg/ml, mixed with Tigecycline for Injection, four hour period
Description: as §3

[5] = Table 5: Tigecycline and Dopamine solutions
[6] = Table 5: Tigecycline and Dopamine solutions, each before mixing, 0 hours
[7] = Table 1: Tigecycline 1 mg/mL in NS, Heparin 10 Units/ml in NS
[8] = Table 2: Tigecycline 1 mg/mL in NS, Heparin 100 Units/ml in NS
[9] = Table 4: Tigecycline and Dobutamine solutions
[10] = Table 6: Tigecycline and Chlorpromazine solutions
[11] = Table 4: Tigecycline and Dobutamine solutions, each before mixing, 0 hours

Compound	Subvisible Particulates (HIAC) ≧10 μm [1, 5] [particles/ml]	Subvisible Particulates (HIAC) ≧25 μm [1, 5] [particles/ml]	pH [2, 6]	HIAC ≧10 μm [1, 7] [particles/mL]	HIAC ≧25 μm [1, 7] [particles/mL]	HIAC ≧10 μm [1, 8] [particles/mL]	HIAC ≧25 μm [1, 8] [particles/mL]	Subvisible Particulates (HIAC) ≧10 μm [1, 9] [particles/ml]	Subvisible Particulates (HIAC) ≧25 μm [1, 9] [particles/ml]	Subvisible Particulates (HIAC) ≧10 μm [1, 10] [particles/ml]	Subvisible Particulates (HIAC) ≧25 μm [1, 10] [particles/ml]	pH ([2]; Table 2: Tigecycline 1 mg/mL in NS, Heparin 100 Units/ml in NS, each solution before mixing, 0 Hours)	pH [2, 11]	compatibility with the administration of heparin [3]	pH ([2]; Table 6: Tigecycline and Chlorpromazine solutions, each before mixing, 0 hours)	Compatibility Classification [4]
NCCc1ccc(O)c(O)c1 [Dopamine, reference compound]	3.1	0.1	3.59	–	–	–	–	–	–	–	–	–	–	–	–	–
CN(C)c1cc(NC(=O)CNC(C)(C)C)c(O)c2c1C[C@H]1C[C@H]3[C@H](N(C)C)C(O)=C(C(N)=O)C(=O)[C@@]3(O)C(O)=C1C2=O [Tigecycline, (4S,4aS,5aR,12aS)-9-[2-(tert-butylamino)acetamido]-4,7-bis(dimethylamino)-1,4,4a,5,5a,6,11,12a-octahydro-3,10,12,12a-tetrahydroxy-1,11-dioxo-2-naphthacenecarboxamide]	82.3	2.2	7.84	39.3	1.4	69.1	6.2	35.8	0.9	27.4	1.3	7.82	7.81	compatible	–	–
CN(C)CCCN1c2ccccc2Sc2ccc(Cl)cc21 [Chlorpromazine, reference compound]	–	–	–	–	–	–	–	–	–	21.9	2.9	–	–	–	4.61	–
CC(CCc1ccc(O)cc1)NCCc1ccc(O)c(O)c1 (stereo not drawn) [Dobutamine, reference compound]	–	–	–	–	–	–	–	5.9	0.6	–	–	–	4.18	–	–	Compatible
